Assay results taken from US8497385B2, “Bryostatin analogues, synthetic methods and uses” (The Board of Trustees of the Leland Stanford Junior …, priority 2007, dated 2013).

Columns and labels:
HOP-62 = assay: NCI growth inhibition, HOP-62 (NSC Lung); format: cell-based, human
COLO 205 = assay: NCI growth inhibition, COLO 205 (Colon); format: cell-based, human
UACC-257 = assay: NCI growth inhibition, UACC-257 (Melanoma); format: cell-based, human
ACHN = assay: NCI growth inhibition, ACHN (Renal); format: cell-based, human
HCC-2998 = assay: NCI growth inhibition, HCC-2998 (Colon); format: cell-based, human
HS 578T = assay: NCI growth inhibition, HS 578T (Breast); format: cell-based, human
RPMI-8226 = assay: NCI growth inhibition, RPMI-8226 (Leukemia); format: cell-based, human
NCI/ADR-RES = assay: NCI growth inhibition, NCI/ADR-RES (Breast); format: cell-based, human
UO-31 = assay: NCI growth inhibition, UO-31 (Renal); format: cell-based, human
[1] = tested on: NCl human cancer cell-lines; assay: In vitro inhibition of growth in NCI human cancer cell lines, all cell groups; format: cell-based; conditions: all cell groups tested
P388 cell line = assay: P388 Murine Lymphocytic Leukemia Cell Assay; format: cell-based
Description: Cells from a P388 cell line (CellGate, Inc., Sunnyvale, Calif.) are grown in RPMI 1640 cell medium containing fetal calf serum (10%), L-glutamine, penicillin, streptomycin and are split twice weekly. All compounds are first diluted with DMSO. Later serial dilutions are done with a phosphate buffer solution (HYQ DPBS modified phosphate buffered saline). All dilutions are done in glass vials and the final DMSO concentration is always below 0.5% by volume. Final two-fold dilutions are done in a 96 well plate using cell media so that each well contains 50 μL. All compounds are assayed in quadruplicate over 12 concentrations. Cell concentration is measured using a hemacytometer and the final cell concentration is adjusted to 1×10^4 cells/mL with cell medium. The resulting solution of cells (50 μL) is then added to each well and the plates are incubated for 5 days in a 37° C., 5% CO2, humidified incubator (Sanyo CO2 incubator). MTT solution (3-[4,5-dimethylthiazol-2-yl]-2,5-diphenyltetrazolium bromide, 10 μL) is then added to each well and the plates are re-incubated under identical conditions for 2 h. To each well is then added acidified isopropanol (150 μL of i-PrOH solution containing 0.05 N HCl) and mixed thoroughly. The plates are then scanned at 595 nm and the absorbances are read (Wallac Victor 1420 Multilabel Counter). The resulting data is then analyzed to determine an ED50 value using the Prism software package (GraphPad).

SR = assay: NCI growth inhibition, SR (Leukemia); format: cell-based, human
SK-OV-3 = assay: NCI growth inhibition, SK-OV-3 (Ovarian); format: cell-based, human
A498 = assay: NCI growth inhibition, A498 (Renal); format: cell-based, human
LOX IMVI = assay: NCI growth inhibition, LOX IMVI (Melanoma); format: cell-based, human
NCI-H460 = assay: NCI growth inhibition, NCI-H460 (NSC Lung); format: cell-based, human
SF-539 = assay: NCI growth inhibition, SF-539 (CNS); format: cell-based, human
NCI-H322M = assay: NCI growth inhibition, NCI-H322M (NSC Lung); format: cell-based, human

CCCCCCCC(=O)OC1C(=CC(=O)OC)CC2CC(CO)OC(=O)CC(O)CC3CCCC(CC4CCOC(C=CC(C)(C)C1(O)O2)O4)O3 (centres unmarked) [Formula IIa (702.1)]
GI50 (HOP-62): −4.79 log of molar concentration | Difference of GI50 (log), Desmethyl vs Bryo-1 (COLO 205; COLO 205): −1.68 | GI50 (COLO 205; COLO 205, Colon): −7.08 log of molar concentration | Difference of GI50 (log), Desmethyl vs Bryo-1 (UACC-257; UACC-257): −0.03 | GI50 (UACC-257; UACC-257, Melanoma): −5.13 log of molar concentration | Difference of GI50 (log), Desmethyl vs Bryo-1 (ACHN): −0.44 | GI50 (ACHN; Renal): −5.94 log of molar concentration | Difference of GI50 (log), Desmethyl vs Bryo-1 (HCC-2998; HCC-2998): −2.24 | GI50 (HCC-2998; HCC-2998, Colon): −7.54 log of molar concentration | more active than bryostatin-1 (HCC-2998; HCC-2998, Colon): more than 2 orders of magnitude | Difference of GI50 (log), Desmethyl vs Bryo-1 (HS 578T): 0.02 | GI50 (HS 578T; Breast): −5.18 log of molar concentration | Difference of GI50 (log), Desmethyl vs Bryo-1 (RPMI-8226; RPMI-8226): −0.82 | GI50 (RPMI-8226; RPMI-8226, Leukemia): −5.82 log of molar concentration | GI50 (NCI/ADR-RES): −4.74 log of molar concentration | Difference of GI50 (log), Desmethyl vs Bryo-1 (UO-31; UO-31): 0.75 | GI50 (UO-31; UO-31, Renal): −4.85 log of molar concentration | potency relative to bryostatin-1, on average [1]: at least as potent, on average, as bryostatin-1 | activity in P388 assay relative to comparison analogues (P388 cell line; 702.1 vs C26 methyl-containing analogue, 48, 49 vs other C20 esters): significantly higher activity | P388 Assay ED50 (P388 cell line; 5 days incubation, MTT): 17 nM | Difference of GI50 (log), Desmethyl vs Bryo-1 (SR): −0.10 | GI50 (SR; Leukemia): −5.1 log of molar concentration | Difference of GI50 (log), Desmethyl vs Bryo-1 (SK-OV-3; SK-OV-3): 0.80 | GI50 (SK-OV-3; SK-OV-3, Ovarian): −4.3 log of molar concentration | Difference of GI50 (log), Desmethyl vs Bryo-1 (A498; A498): −1.38 | GI50 (A498; A498, Renal): −6.38 log of molar concentration | Difference of GI50 (log), Desmethyl vs Bryo-1 (LOX IMVI): −0.37 | GI50 (LOX IMVI; Melanoma): −5.47 log of molar concentration | Difference of GI50 (log), Desmethyl vs Bryo-1 (NCI-H460; NCI-H460): −2.40 | GI50 (NCI-H460; NCI-H460, NSC Lung): <−8 log of molar concentration | more active than bryostatin-1 (NCI-H460; NCI-H460, NSC Lung): more than 2 orders of magnitude | Difference of GI50 (log), Desmethyl vs Bryo-1 (SF-539; SF-539): −0.77 | GI50 (SF-539; SF-539, CNS): −5.77 log of molar concentration | Difference of GI50 (log), Desmethyl vs Bryo-1 (NCI-H322M): 1.62 | GI50 (NCI-H322M; NSC Lung): −4.38 log of molar concentration
